Measurements: publication PMC5290327, “SC83288 is a clinical development candidate for the treatment of severe malaria” (Nature Communications, 2017)

What was measured:
Assay in all cases: KINOMEscan
Assay type in all cases: binding
Details in all cases: read-out: Remaining enzyme activity
[1] = molecular target: T1, ASK1 (Homo sapiens, UniProt Q99683)
T1 construct: purchased Ambit (DiscoverX) KINOMEscan; Cerep
Method in brief: (§1)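 Binding, not activity: the compound competes with an active-site directed ligand on beads for DNA-tagged human kinase. Quantitative PCR of the tag gives the kinase recovered. Single concentration, 10 μM SC81458.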

[2] = molecular target: T2, BMX (Homo sapiens, UniProt P51813)
T2 construct: purchased Ambit (DiscoverX) KINOMEscan; Cerep
Method in brief: as §1

[3] = molecular target: T3, CAMK1g (Homo sapiens, UniProt Q96NX5)
T3 construct: purchased Ambit (DiscoverX) KINOMEscan; Cerep
Method in brief: as §1

[4] = molecular target: T4, CDK11 (Homo sapiens, UniProt Q9BWU1)
T4 construct: purchased Ambit (DiscoverX) KINOMEscan; Cerep
Method in brief: as §1

[5] = molecular target: T5, CLK1 (Homo sapiens, UniProt P49759)
T5 construct: purchased Ambit (DiscoverX) KINOMEscan; Cerep
Method in brief: as §1

[6] = molecular target: T6, DAPK1 (Homo sapiens, UniProt P53355)
T6 construct: purchased Ambit (DiscoverX) KINOMEscan; Cerep
Method in brief: as §1

[7] = molecular target: T7, DDR1 (Homo sapiens, UniProt Q08345)
T7 construct: purchased Ambit (DiscoverX) KINOMEscan; Cerep
Method in brief: as §1

[8] = molecular target: T8, EGFR(G719S) (Homo sapiens, UniProt P00533, G719S)
T8 construct: purchased Ambit (DiscoverX) KINOMEscan; Cerep
Method in brief: as §1

[9] = molecular target: T9, EGFR(L747-E752del, P753S) (Homo sapiens, UniProt P00533, DEL747-752/P753S)
T9 construct: purchased Ambit (DiscoverX) KINOMEscan; Cerep
Method in brief: as §1

[10] = molecular target: T10, EPHB4 (Homo sapiens, UniProt P54760)
T10 construct: purchased Ambit (DiscoverX) KINOMEscan; Cerep
Method in brief: as §1

[11] = molecular target: T11, ERK5 (Homo sapiens, UniProt Q13164)
T11 construct: purchased Ambit (DiscoverX) KINOMEscan; Cerep
Method in brief: as §1

[12] = molecular target: T12, FAK (Homo sapiens, UniProt Q05397)
T12 construct: purchased Ambit (DiscoverX) KINOMEscan; Cerep
Method in brief: as §1

[13] = molecular target: T13, FLT1 (Homo sapiens, UniProt P17948)
T13 construct: purchased Ambit (DiscoverX) KINOMEscan; Cerep
Method in brief: as §1

[14] = molecular target: T14, HPK1 (Homo sapiens, UniProt Q92918)
T14 construct: purchased Ambit (DiscoverX) KINOMEscan; Cerep
Method in brief: as §1

[15] = molecular target: T15, JNK1 (Homo sapiens, UniProt P45983)
T15 construct: purchased Ambit (DiscoverX) KINOMEscan; Cerep
Method in brief: as §1

[16] = molecular target: T16, LATS1 (Homo sapiens, UniProt O95835)
T16 construct: purchased Ambit (DiscoverX) KINOMEscan; Cerep
Method in brief: as §1

[17] = molecular target: T17, LOK (Homo sapiens, UniProt O94804)
T17 construct: purchased Ambit (DiscoverX) KINOMEscan; Cerep
Method in brief: as §1

[18] = molecular target: T18, MAP4K3 (Homo sapiens, UniProt Q8IVH8)
T18 construct: purchased Ambit (DiscoverX) KINOMEscan; Cerep
Method in brief: as §1

[19] = molecular target: T19, MAP4K5 (Homo sapiens, UniProt Q9Y4K4)
T19 construct: purchased Ambit (DiscoverX) KINOMEscan; Cerep
Method in brief: as §1

[20] = molecular target: T20, MLCK (Homo sapiens, UniProt Q32MK0)
T20 construct: purchased Ambit (DiscoverX) KINOMEscan; Cerep
Method in brief: as §1

[21] = molecular target: T21, MLK3 (Homo sapiens, UniProt Q16584)
T21 construct: purchased Ambit (DiscoverX) KINOMEscan; Cerep
Method in brief: as §1

[22] = molecular target: T22, NDR2 (Homo sapiens, UniProt Q9Y2H1)
T22 construct: purchased Ambit (DiscoverX) KINOMEscan; Cerep
Method in brief: as §1

[23] = molecular target: T23, NEK2 (Homo sapiens, UniProt P51955)
T23 construct: purchased Ambit (DiscoverX) KINOMEscan; Cerep
Method in brief: as §1

[24] = molecular target: T24, PAK3 (Homo sapiens, UniProt O75914)
T24 construct: purchased Ambit (DiscoverX) KINOMEscan; Cerep
Method in brief: as §1

[25] = molecular target: T25, PCTK2 (Homo sapiens, UniProt Q00537)
T25 construct: purchased Ambit (DiscoverX) KINOMEscan; Cerep
Method in brief: as §1

[26] = molecular target: T26, PIK3CA(Q546K) (Homo sapiens, UniProt P42336, Q546K)
T26 construct: purchased Ambit (DiscoverX) KINOMEscan; Cerep
Method in brief: as §1

[27] = molecular target: T27, RIOK1 (Homo sapiens, UniProt Q9BRS2)
T27 construct: purchased Ambit (DiscoverX) KINOMEscan; Cerep
Method in brief: as §1

[28] = molecular target: T28, ROCK1 (Homo sapiens, UniProt Q13464)
T28 construct: purchased Ambit (DiscoverX) KINOMEscan; Cerep
Method in brief: as §1

[29] = molecular target: T29, RPS6KA6(Kin.Dom.1-N-term) (Homo sapiens, UniProt Q9UK32)
T29 construct: RPS6KA6(Kin.Dom.1-N-term); purchased Ambit (DiscoverX) KINOMEscan; Cerep
Method in brief: as §1

[30] = molecular target: T30, TAO1 (Homo sapiens, UniProt Q9UL54)
T30 construct: purchased Ambit (DiscoverX) KINOMEscan; Cerep
Method in brief: as §1

[31] = molecular target: T31, TIE2 (Homo sapiens, UniProt Q02763)
T31 construct: purchased Ambit (DiscoverX) KINOMEscan; Cerep
Method in brief: as §1

[32] = molecular target: T32, TRKa (Homo sapiens, UniProt P04629)
T32 construct: purchased Ambit (DiscoverX) KINOMEscan; Cerep
Method in brief: as §1

[33] = molecular target: T33, WEE2 (Homo sapiens, UniProt P0C1S8)
T33 construct: purchased Ambit (DiscoverX) KINOMEscan; Cerep
Method in brief: as §1

T9 sequence (P00533 with tags, fused parts or gaps DEL747-752/P753S limits assumed): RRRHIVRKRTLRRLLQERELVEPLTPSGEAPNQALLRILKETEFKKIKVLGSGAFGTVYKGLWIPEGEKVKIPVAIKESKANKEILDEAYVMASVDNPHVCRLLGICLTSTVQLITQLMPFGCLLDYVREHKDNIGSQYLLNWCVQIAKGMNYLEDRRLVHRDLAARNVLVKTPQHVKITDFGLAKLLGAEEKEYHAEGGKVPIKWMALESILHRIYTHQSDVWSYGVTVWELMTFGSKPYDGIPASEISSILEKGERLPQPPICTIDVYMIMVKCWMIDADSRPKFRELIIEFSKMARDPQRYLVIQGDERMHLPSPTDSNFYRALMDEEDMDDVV
T15 sequence (P45983 whole entry): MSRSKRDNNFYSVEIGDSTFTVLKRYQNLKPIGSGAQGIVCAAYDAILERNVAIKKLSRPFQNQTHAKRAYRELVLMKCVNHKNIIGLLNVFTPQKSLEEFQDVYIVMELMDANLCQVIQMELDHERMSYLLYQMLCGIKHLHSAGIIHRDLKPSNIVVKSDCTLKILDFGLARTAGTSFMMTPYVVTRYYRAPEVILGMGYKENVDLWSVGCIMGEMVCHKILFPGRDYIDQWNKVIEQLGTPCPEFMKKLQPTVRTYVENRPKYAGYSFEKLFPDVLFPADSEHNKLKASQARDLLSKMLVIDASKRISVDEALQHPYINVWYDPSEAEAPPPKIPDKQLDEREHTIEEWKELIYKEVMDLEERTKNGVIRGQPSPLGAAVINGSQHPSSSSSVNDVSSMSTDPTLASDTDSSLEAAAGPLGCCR
T12 sequence (Q05397 whole entry): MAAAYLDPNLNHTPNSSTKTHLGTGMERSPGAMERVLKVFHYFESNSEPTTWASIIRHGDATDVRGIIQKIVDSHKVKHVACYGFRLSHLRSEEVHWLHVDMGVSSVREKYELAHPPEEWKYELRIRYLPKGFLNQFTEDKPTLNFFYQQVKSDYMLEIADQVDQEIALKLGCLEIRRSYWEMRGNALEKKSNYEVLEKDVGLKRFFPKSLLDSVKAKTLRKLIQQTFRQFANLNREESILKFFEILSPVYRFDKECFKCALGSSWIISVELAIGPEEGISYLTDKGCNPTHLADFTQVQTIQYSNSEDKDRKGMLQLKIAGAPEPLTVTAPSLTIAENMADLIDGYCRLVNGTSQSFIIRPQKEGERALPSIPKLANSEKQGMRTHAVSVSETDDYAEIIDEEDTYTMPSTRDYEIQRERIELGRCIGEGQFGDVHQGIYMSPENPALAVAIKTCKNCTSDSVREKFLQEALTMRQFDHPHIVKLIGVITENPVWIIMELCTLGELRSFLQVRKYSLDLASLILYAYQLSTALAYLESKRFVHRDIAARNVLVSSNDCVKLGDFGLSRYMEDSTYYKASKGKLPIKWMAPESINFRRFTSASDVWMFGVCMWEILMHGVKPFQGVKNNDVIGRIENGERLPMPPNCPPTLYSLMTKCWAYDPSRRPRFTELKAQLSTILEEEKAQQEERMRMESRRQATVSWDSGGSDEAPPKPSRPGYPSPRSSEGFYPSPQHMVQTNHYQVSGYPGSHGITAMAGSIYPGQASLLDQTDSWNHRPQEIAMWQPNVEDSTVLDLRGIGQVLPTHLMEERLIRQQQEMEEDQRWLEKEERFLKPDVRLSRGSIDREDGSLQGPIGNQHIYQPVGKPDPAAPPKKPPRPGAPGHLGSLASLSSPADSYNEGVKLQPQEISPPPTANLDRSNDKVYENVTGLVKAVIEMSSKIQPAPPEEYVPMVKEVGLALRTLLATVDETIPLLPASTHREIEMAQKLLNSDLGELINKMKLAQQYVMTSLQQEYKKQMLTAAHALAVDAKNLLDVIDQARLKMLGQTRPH
T20 sequence (Q32MK0 whole entry): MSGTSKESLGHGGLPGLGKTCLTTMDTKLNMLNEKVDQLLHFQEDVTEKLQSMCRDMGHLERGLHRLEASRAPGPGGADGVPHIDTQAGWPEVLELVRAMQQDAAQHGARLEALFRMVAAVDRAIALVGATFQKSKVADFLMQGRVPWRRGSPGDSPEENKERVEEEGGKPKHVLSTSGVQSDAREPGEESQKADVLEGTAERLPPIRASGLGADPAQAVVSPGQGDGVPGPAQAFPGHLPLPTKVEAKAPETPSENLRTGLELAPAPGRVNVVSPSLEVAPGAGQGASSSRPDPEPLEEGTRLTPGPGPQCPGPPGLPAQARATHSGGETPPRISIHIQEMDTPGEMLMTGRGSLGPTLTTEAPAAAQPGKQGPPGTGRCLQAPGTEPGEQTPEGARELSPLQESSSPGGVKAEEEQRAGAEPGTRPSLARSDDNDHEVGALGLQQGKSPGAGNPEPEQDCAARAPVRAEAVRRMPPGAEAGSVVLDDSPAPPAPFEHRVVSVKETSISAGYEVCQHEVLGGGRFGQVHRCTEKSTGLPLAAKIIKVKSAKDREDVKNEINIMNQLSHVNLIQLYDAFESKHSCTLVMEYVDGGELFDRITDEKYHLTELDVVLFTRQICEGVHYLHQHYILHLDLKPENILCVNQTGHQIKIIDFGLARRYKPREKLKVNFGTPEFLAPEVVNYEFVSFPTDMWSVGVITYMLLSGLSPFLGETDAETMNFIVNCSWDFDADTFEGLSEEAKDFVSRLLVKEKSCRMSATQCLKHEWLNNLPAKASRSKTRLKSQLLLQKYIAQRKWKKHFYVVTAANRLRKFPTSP
T21 sequence (Q16584 whole entry): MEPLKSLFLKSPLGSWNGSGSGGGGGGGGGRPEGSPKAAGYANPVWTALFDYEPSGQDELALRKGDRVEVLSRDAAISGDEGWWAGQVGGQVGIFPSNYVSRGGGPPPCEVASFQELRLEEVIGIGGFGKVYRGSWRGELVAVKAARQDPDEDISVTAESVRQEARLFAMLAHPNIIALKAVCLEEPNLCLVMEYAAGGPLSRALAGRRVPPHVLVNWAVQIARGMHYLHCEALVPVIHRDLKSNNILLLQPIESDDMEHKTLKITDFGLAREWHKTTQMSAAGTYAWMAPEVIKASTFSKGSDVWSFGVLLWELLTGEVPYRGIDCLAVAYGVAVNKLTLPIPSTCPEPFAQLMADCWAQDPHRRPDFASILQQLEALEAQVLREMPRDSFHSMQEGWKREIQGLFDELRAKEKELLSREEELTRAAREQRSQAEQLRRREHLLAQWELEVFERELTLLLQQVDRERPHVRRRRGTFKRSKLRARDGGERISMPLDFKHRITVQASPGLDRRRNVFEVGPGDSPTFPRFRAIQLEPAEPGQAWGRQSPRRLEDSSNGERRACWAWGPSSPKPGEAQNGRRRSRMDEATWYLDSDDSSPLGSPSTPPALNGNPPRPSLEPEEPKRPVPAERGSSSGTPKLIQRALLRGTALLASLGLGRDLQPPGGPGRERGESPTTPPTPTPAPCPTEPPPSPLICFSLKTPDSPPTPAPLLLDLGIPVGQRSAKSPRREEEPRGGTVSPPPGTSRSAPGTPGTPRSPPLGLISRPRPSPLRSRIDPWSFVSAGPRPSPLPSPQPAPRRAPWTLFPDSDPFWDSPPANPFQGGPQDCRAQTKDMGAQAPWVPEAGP
T32 sequence (P04629 33-796): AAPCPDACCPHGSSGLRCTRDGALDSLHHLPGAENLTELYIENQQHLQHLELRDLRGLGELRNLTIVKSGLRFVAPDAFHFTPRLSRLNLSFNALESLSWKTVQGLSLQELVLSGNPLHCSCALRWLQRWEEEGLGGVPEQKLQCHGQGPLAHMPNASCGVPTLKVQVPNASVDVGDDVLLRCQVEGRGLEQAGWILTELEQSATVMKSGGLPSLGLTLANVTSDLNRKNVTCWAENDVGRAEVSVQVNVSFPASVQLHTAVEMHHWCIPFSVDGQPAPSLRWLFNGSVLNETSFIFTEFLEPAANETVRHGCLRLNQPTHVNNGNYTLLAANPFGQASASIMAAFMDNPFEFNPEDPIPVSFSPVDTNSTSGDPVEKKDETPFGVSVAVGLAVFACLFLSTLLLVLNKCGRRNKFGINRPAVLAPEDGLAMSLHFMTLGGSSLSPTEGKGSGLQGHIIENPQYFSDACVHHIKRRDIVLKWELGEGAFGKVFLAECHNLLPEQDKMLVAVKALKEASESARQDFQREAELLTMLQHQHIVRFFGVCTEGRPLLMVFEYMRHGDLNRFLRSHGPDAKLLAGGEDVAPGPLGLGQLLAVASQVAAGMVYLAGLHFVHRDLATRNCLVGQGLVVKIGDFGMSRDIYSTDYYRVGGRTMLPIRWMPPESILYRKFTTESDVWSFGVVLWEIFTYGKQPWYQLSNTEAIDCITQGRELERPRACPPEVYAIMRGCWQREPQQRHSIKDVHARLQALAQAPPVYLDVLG
T23 sequence (P51955 whole entry): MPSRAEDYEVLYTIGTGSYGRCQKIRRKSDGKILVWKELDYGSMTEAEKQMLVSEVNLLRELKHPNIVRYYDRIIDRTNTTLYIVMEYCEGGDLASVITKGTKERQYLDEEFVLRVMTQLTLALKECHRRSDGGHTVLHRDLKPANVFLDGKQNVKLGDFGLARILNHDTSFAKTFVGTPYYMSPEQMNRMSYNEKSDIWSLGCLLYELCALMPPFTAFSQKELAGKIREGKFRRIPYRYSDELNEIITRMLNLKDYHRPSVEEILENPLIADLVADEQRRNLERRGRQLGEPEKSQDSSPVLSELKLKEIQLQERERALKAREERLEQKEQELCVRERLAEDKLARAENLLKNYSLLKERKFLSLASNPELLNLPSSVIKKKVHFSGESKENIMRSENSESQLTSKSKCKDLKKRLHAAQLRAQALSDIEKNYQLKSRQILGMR
T29 sequence (Q9UK32 73-330 limits assumed): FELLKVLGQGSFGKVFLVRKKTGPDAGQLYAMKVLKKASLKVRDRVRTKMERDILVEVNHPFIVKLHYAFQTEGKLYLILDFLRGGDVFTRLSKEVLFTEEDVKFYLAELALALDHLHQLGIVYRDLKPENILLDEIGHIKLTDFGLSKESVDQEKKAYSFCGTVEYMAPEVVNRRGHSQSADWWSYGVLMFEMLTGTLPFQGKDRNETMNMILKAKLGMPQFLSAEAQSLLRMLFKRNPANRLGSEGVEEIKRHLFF

`CCCCN1CCN(C(=N)c2cccc(NC(=O)Nc3ccc(S(=O)(=O)NCc4ccc(S(N)(=O)=O)cc4)cc3)c2)CC1` [SC81458, 4-(3-(3-((4-butylpiperazin-1-yl)(imino)methyl)phenyl)ureido)-N-(4-sulfamoylbenzyl) benzenesulfonamide] showed a remaining binding at 10 µM [1] of 100%, a remaining binding at 10 µM [2] of 100% and a remaining binding at 10 µM [3] of 98%. For the same molecule, the remaining binding at 10 µM [4] was 91%, the remaining binding at 10 µM [5] was 100% and the remaining binding at 10 µM [6] was 100%. For the same molecule, the remaining binding at 10 µM [7] was 91%, the remaining binding at 10 µM [8] was 100% and the remaining binding at 10 µM [9] was 84%. It also gave a remaining binding at 10 µM [10] of 100%, a remaining binding at 10 µM [11] of 100% and a remaining binding at 10 µM [12] of 100%. It also gave a remaining binding at 10 µM [13] of 91%, a remaining binding at 10 µM [14] of 100% and a remaining binding at 10 µM [15] of 98%. For the same molecule, the remaining binding at 10 µM [16] was 82%, the remaining binding at 10 µM [17] was 100% and the remaining binding at 10 µM [18] was 95%. It also gave a remaining binding at 10 µM [19] of 100%, a remaining binding at 10 µM [20] of 100% and a remaining binding at 10 µM [21] of 100%. It also gave a remaining binding at 10 µM [22] of 100%, a remaining binding at 10 µM [23] of 96% and a remaining binding at 10 µM [24] of 93%. It also gave a remaining binding at 10 µM [25] of 97%, a remaining binding at 10 µM [26] of 100% and a remaining binding at 10 µM [27] of 75%. It also gave a remaining binding at 10 µM [28] of 100%, a remaining binding at 10 µM [29] of 68% and a remaining binding at 10 µM [30] of 100%. The remaining binding at 10 µM [31] was 100%, the remaining binding at 10 µM [32] was 100% and the remaining binding at 10 µM [33] was 100%.
